Measurements taken from US20060189551A1 (priority 2004, published 2006).

What was measured:
[1] = biological target: FKBP12-aspartokinase interaction (Saccharomyces cerevisiae, UniProt P20081)
Description: (§1) Transformants from yeast two-hybrid host strain PJ69-4A coexpressing Ga14 DNA-binding domain (BD) fusion proteins from plasmid pGBT9-Fpr1 (BD-Fpr1), pGBT9-AK (BD-AK), or pGBT9-AK(E282D) (BD-AD^E282D) and Ga14 activation domain (AD) fusion proteins from plasmids pGAD424-AK (AD-AK) or pGAD424-AK(E282D) (AD-AK^E212D) were grown in SD medium supplemented with uracil, adenine, methionine, and histidine (YNB) or in the same medium plus 1 g of L-threonine/liter (YNB+Thr) or 10 μg of FK506/mL (YNB+FK506), and induction of the lacZ reporter gene was quantified by assaying beta-galactosidase activity. PJ69-4A cotransformed with vectors pGBT9 (BD) and pGAD424 (AD) was assayed as a control.
(§2) Yeast two-hybrid host strain PJ69-4A was cotransformed with plasmids expressing the Ga14 DNA binding-domain (BD) and Ga14 activation domain (AD) fusion proteins. The transformants were grown in Siluid SD medium supplemented with adenine, uracil, methionine, and histidine or in the same medium with the 1 g of L-threonine/liter or with 10 mg of FK506/liter, and induction of the lacZ reporter gene was measured as beta-galactosidase activity as disclosed in Cardenas et al., EMBO J., 14, 5892-5907. […]

aspartokinase [2] = biological target: aspartokinase (Saccharomyces cerevisiae, UniProt P10869, E282D); conditions: 5 mM threonine
Description: (§3) Aspartokinase (AK) activity in partially purified extracts obtained from the strains described in FIG. 8A was assayed in the presence or absence of threonine (1 or 5 mM).
(§4) AK activity was measured with an enzymatic assay that couples ADP formation with NADH depletion, using pyruvate kinase/lactate dehydrogenase system.
(§5) Aspartokinase activity was assayed in the presence and absence of threonine from wild-type and fpr1, hom6 or HOM3-R7 feedback-resistant mutant cells.

aspartokinase [3] = biological target: T1, aspartokinase (Saccharomyces cerevisiae, UniProt P10869)
T1 sequence (P10869 1-527): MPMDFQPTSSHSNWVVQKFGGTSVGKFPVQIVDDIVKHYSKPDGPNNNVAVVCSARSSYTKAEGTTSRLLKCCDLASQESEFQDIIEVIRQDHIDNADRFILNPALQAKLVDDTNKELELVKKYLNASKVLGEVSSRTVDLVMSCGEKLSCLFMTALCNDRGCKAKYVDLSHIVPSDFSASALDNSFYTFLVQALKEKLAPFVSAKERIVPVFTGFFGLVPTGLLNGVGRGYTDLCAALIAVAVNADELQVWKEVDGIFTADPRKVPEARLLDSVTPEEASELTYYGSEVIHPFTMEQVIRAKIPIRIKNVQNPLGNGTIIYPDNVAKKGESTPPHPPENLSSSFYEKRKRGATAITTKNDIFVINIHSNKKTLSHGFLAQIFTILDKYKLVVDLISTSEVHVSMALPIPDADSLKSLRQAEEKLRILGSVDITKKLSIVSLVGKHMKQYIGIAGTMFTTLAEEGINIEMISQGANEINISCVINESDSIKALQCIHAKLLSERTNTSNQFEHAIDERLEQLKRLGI
Description: as §3, §4, §5

[4] = biological target: FKBP12-aspartokinase interaction (Saccharomyces cerevisiae, UniProt P10869, E282D); conditions: 30 mM L-threonine added to binding reaction
Description: (§6) FKBP12-aspartokinase (AK) and AK-AK interaction by in vitro affinity chromatography. Crude protein extracts obtained from a wild-type strain (BY4741) or from a strain expressing the HOM3-R7 mutant allele (MAY315) were incubated with His6-tagged yeast FKPB12 coupled to agarose beads in the presence or absence of 30 mM L-threonine. Bound proteins were eluted and analyzed by Western blotting with antibodies against yeast aspartokinase. Binding reactions wit agarose beads alone were included as controls.

[5] = biological target: FKBP12-aspartokinase interaction (Saccharomyces cerevisiae, UniProt P10869); conditions: 30 mM L-threonine added to binding reaction
Description: as §6

[6] = tested on: FKBP12-aspartokinase interaction; conditions: 1 g of L-threonine/liter in culture medium (YNB+Thr)
Description: as §1, §2

Chain of FKBP12-aspartokinase interaction (Saccharomyces cerevisiae, UniProt P20081) (P20081 2-114): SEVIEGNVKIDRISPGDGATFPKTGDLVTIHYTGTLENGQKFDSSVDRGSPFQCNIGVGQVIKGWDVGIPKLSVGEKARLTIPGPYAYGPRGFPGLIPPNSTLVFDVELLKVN
Chain of FKBP12-aspartokinase interaction (Saccharomyces cerevisiae, UniProt P10869, E282D) (P20081 2-114): as above
Chain of FKBP12-aspartokinase interaction (Saccharomyces cerevisiae, UniProt P10869, E282D) (P10869 whole entry E282D): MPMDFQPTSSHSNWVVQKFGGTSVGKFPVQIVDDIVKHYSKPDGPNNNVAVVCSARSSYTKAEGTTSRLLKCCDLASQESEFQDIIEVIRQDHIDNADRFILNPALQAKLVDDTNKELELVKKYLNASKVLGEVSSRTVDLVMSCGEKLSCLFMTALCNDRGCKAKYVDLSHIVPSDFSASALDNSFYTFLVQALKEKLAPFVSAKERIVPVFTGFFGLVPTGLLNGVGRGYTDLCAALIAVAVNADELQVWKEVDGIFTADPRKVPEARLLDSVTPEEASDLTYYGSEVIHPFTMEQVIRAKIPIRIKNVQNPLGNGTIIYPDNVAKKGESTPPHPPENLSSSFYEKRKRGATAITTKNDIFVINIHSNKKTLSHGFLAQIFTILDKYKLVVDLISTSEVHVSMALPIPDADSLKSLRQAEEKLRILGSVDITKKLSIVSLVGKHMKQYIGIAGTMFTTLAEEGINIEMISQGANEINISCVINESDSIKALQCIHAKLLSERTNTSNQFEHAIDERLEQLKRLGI
Chain of FKBP12-aspartokinase interaction (Saccharomyces cerevisiae, UniProt P10869) (P20081 2-114, one chain of several): as the sequence (P20081 2-114) above
Chain of aspartokinase (Saccharomyces cerevisiae, UniProt P10869, E282D) (P10869 whole entry E282D): as the sequence (P10869 whole entry E282D) above

Row | Compound | FKBP12-aspartokinase binding in the presence of FK506 [1] | activity of feedback-resistant aspartokinase (HOM3-R7) (aspartokinase [2]) | aspartokinase activity from wild-type and fpr1Δ strains (aspartokinase [3]; 1 mM threonine) | aspartokinase activity (feedback inhibition) (aspartokinase [3]; 5 mM threonine) | aspartokinase activity of the hom6Δ mutant (aspartokinase [3]; threonine 1 or 5 mM) | FKBP12 interaction with feedback resistant aspartokinase (HOM3-R7) [4] | FKBP12 interaction with wild-type aspartokinase [5] | FKBP12-AK and FKBP12-AK^E282D binding [6]
1 | C=CC[C@@H]1/C=C(\C)C[C@H](C)C[C@H](OC)[C@H]2O[C@@](O)(C(=O)C(=O)N3CCCC[C@H]3C(=O)O[C@H](/C(C)=C/[C@@H]3CC[C@@H](O)[C@H](OC)C3)[C@H](C)[C@@H](O)CC1=O)[C@H](C)C[C@@H]2OC (relative stereo) [FK506, [3S-[3R*[E(1S*,3S*,4S*)],4S*,5R*,8S*,9E,12R*,14R*,15S*,16R*,18S*,19S*,26aR*]]-5,6,8,11,12,13,14,15,16,17,18,19,24,25,26,26a-hexadecahydro-5,19-dihydroxy-3-[2-(4-hydroxy-3-methoxycyclohexyl)-1-methylethenyl]-14,16-dimethoxy-4,10,12,18-tetramethyl-8-(2-propenyl)-15,19-epoxy-3H-pyrido[2,1-c][1,4]oxaazacyclotricosine-1,7,20,21(4H,23H)-tetrone, reference compound] | nearly abolished | – | – | – | – | – | – | –
2 | C[C@@H](O)[C@H](N)C(=O)O [threonine, L-threonine] | – | no inhibition | inhibited to comparable levels | completely feedback inhibited | inhibited | not with feedback resistant aspartokinase | increased | increased
